Source: PMC12190436, “5-Ene-2-arylaminothiazol-4(5H)-ones Induce Apoptosis in Breast Cancer Cells” (Cells, 2025)

Columns and labels:
Assay type in all cases: cell-based
[1] = tested on: TK-10
[2] = tested on: Melanoma
[3] = tested on: SR
[4] = tested on: RXF 393
[5] = tested on: KM12
[6] = tested on: HOP-62
[7] = tested on: NCI-H266
[8] = tested on: HCT-15
[9] = tested on: OVCAR-5
[10] = tested on: LOX IMVI; conditions: MG_MID_60/value
[11] = tested on: CNS Cancer
[12] = tested on: NCI/ADR-RES
[13] = tested on: HCC -2998
[14] = tested on: DU-145
[15] = tested on: PC-3
[16] = tested on: UO-31
[17] = tested on: SK-MEL-2
[18] = tested on: Colon Cancer
[19] = tested on: CCRF-CEM
[20] = tested on: EKVX
[21] = tested on: OVCAR-4
[22] = tested on: HOP-92
[23] = Homo sapiens, 48 h, read-out: LC50 (the source's name)

COc1cc(NC2=NC(=O)C(=Cc3c[nH]c4ccccc34)S2)cc(OC)c1OC [Les-6418, 5-((1H-Indol-3-yl)methylene)-2-((3,4,5-trimethoxyphenyl)amino)thiazol-4(5H)-one]
GI50 ([1]; Homo sapiens, TK-10, 48 h): 8.56 µM
CC50 ([1]; Homo sapiens, TK-10, 48 h, read-out: LC50 (the source's name)): 55.6 µM
TGI ([1]; TK-10, 48 h): 22.8 µM
SI (TGI) ([1]; TK-10, MG_MID_60/value): 0.82
GI50 ([2]; Homo sapiens, Melanoma subpanel mean, read-out: MG_MID GI50): 3 µM
CC50 ([2]; Homo sapiens, Melanoma subpanel mean, read-out: MG_MID LC50): 43.1 µM
MG_MID TGI ([2]; Melanoma subpanel mean): 14.9 µM
SI (MG_MID TGI) ([2]; Melanoma subpanel, MG_MID_60/value): 1.25
TGI ([3]; 48 h): 29.9 µM
GI50 ([3]; Homo sapiens, 48 h): 0.394 µM
CC50 [3, 23]: > 100 µM
SI (TGI) ([3]; MG_MID_60/value): 0.62
GI50 ([4]; Homo sapiens, RXF 393, 48 h): 1 µM
CC50 ([4]; Homo sapiens, RXF 393, 48 h, read-out: LC50 (the source's name)): 34 µM
TGI ([4]; RXF 393, 48 h): 5.80 µM
SI (TGI) ([4]; RXF 393, MG_MID_60/value): 3.21
GI50 ([5]; Homo sapiens, KM12, 48 h): 0.977 µM
CC50 ([5]; Homo sapiens, KM12, 48 h, read-out: LC50 (the source's name)): 70.7 µM
TGI ([5]; KM12, 48 h): 16.8 µM
SI (TGI) ([5]; KM12, MG_MID_60/value): 1.11
TGI ([6]; HOP-62, 48 h): 15.7 µM
SI (TGI) ([6]; HOP-62, MG_MID_60/value): 1.18
GI50 ([6]; Homo sapiens, HOP-62, 48 h): 2.69 µM
LC50 ([6]; Homo sapiens, HOP-62, 48 h): 65.9 µM
GI50 ([7]; Homo sapiens, NCI-H266, 48 h): 3.18 µM
CC50 ([7]; Homo sapiens, NCI-H266, 48 h, read-out: LC50 (the source's name)): 68.8 µM
TGI ([7]; NCI-H266, 48 h): 17.4 µM
SI (TGI) ([7]; NCI-H266, MG_MID_60/value): 1.07
TGI ([8]; HCT-15, 48 h): 12.4 µM
SI (TGI) ([8]; HCT-15, MG_MID_60/value): 1.50
GI50 ([8]; Homo sapiens, HCT-15, 48 h): 1.79 µM
CC50 ([8]; Homo sapiens, HCT-15, 48 h, read-out: LC50 (the source's name)): 37.7 µM
GI50 ([9]; Homo sapiens, OVCAR-5, 48 h): 4.58 µM
LC50 (concentration killing 50% of cells) ([9]; Homo sapiens, OVCAR-5, 48 h): 44.1 µM
TGI ([9]; OVCAR-5, 48 h): 17.7 µM
SI (TGI) ([9]; OVCAR-5, MG_MID_60/value): 1.05
SI (TGI) [10]: 1.34
MG_MID TGI ([11]; CNS Cancer subpanel mean): 14.0 µM
SI (MG_MID TGI) ([11]; CNS Cancer subpanel, MG_MID_60/value): 1.33
GI50 ([11]; Homo sapiens, CNS Cancer subpanel mean, read-out: MG_MID GI50): 3.24 µM
CC50 ([11]; Homo sapiens, CNS Cancer subpanel mean, read-out: MG_MID LC50): 46.1 µM
TGI ([12]; 48 h): 24.2 µM
GI50 ([12]; Homo sapiens, 48 h): 6.24 µM
CC50 [12, 23]: 74.2 µM
SI (TGI) ([12]; MG_MID_60/value): 0.77
TGI ([13]; HCC -2998, 48 h): 20.7 µM
SI (TGI) ([13]; HCC -2998, MG_MID_60/value): 0.90
GI50 ([13]; Homo sapiens, HCC -2998, 48 h): 6.36 µM
CC50 ([13]; Homo sapiens, HCC -2998, 48 h, read-out: LC50 (the source's name)): 47.8 µM
TGI ([14]; DU-145, 48 h): 17.2 µM
SI (TGI) ([14]; DU-145, MG_MID_60/value): 1.08
GI50 ([14]; Homo sapiens, DU-145, 48 h): 4.63 µM
CC50 ([14]; Homo sapiens, DU-145, 48 h, read-out: LC50 (the source's name)): 47.4 µM
GI50 ([15]; Homo sapiens, PC-3, 48 h): 2.59 µM
CC50 ([15]; Homo sapiens, PC-3, 48 h, read-out: LC50 (the source's name)): 94.2 µM
TGI ([15]; PC-3, 48 h): 22.6 µM
SI (TGI) ([15]; PC-3, MG_MID_60/value): 0.82
GI50 ([16]; Homo sapiens, UO-31, 48 h): 3.43 µM
CC50 ([16]; Homo sapiens, UO-31, 48 h, read-out: LC50 (the source's name)): 38.8 µM
TGI ([16]; UO-31, 48 h): 13.7 µM
SI (TGI) ([16]; UO-31, MG_MID_60/value): 1.36
GI50 ([17]; Homo sapiens, SK-MEL-2, 48 h): 1.45 µM
CC50 ([17]; Homo sapiens, SK-MEL-2, 48 h, read-out: LC50 (the source's name)): 43.1 µM
TGI ([17]; SK-MEL-2, 48 h): 12.2 µM
SI (TGI) ([17]; SK-MEL-2, MG_MID_60/value): 1.52
MG_MID TGI ([18]; Colon Cancer subpanel mean): 15.5 µM
SI (MG_MID TGI) ([18]; Colon Cancer subpanel, MG_MID_60/value): 1.20
GI50 ([18]; Homo sapiens, Colon Cancer subpanel mean, read-out: MG_MID GI50): 2.48 µM
CC50 ([18]; Homo sapiens, Colon Cancer subpanel mean, read-out: MG_MID LC50): 55.6 µM
TGI ([19]; 48 h): > 100 µM
GI50 ([19]; Homo sapiens, 48 h): 2.09 µM
CC50 [19, 23]: > 100 µM
SI (TGI) ([19]; MG_MID_60/value): 0.19
TGI ([20]; 48 h): 22.2 µM
GI50 ([20]; Homo sapiens, 48 h): 8.02 µM
LC50 ([20]; Homo sapiens, 48 h): 53.2 µM
SI (TGI) ([20]; MG_MID_60/value): 0.84
GI50 ([21]; Homo sapiens, OVCAR-4, 48 h): 2.88 µM
CC50 ([21]; Homo sapiens, OVCAR-4, 48 h, read-out: LC50 (the source's name)): 35.3 µM
TGI ([21]; OVCAR-4, 48 h): 10.6 µM
SI (TGI) ([21]; OVCAR-4, MG_MID_60/value): 1.75
Growth % ([22]; HOP-92, 10 μM, one dose, 48 h): −72.26%
TGI ([22]; HOP-92, 48 h): 6.38 µM
SI (TGI) ([22]; HOP-92, MG_MID_60/value): 2.92
GI50 ([22]; Homo sapiens, HOP-92, 48 h): 1.98 µM
CC50 ([22]; Homo sapiens, HOP-92, 48 h, read-out: LC50 (the source's name)): 42 µM
